{
  "source": "patent US11273217B2",
  "about": "“Cancer treatment composition combining anti-CD26 antibody and other anticancer agent” (Y's AC Co., Ltd., priority 2015, dated 2022)",
  "test_system": "JMN cells",
  "assay": "In vivo JMN cell growth in SCID mice (tumor weight)",
  "settings": "YS110 10 mg/kg, intraperitoneal",
  "data": [
    {"substance": "YS110: humanized anti-CD26 antibody designed based on anti-CD26 mouse antibody 14D10; SEQ ID NO: 17 and 18", "values": [
      {"measurement": "effect of YS110 on the in vivo tumor growth inhibitory effect of cisplatin", "setting": "cisplatin 0.5 mg/kg, days 1 and 4, tumor weight day 7", "value": "potentiated"},
      {"measurement": "effect of YS110 on the in vivo tumor growth inhibitory effect of cisplatin-pemetrexed", "setting": "cisplatin 0.5 mg/kg, pemetrexed 50 mg/kg, days 1 and 4, tumor weight day 7", "value": "potentiated"},
      {"measurement": "inhibitory effect (tumor weight)", "setting": "gemcitabine 10 mg/kg, days 2 and 4, day 7", "value": 34, "unit": "%"},
      {"measurement": "effect of YS110 on the in vivo tumor growth inhibitory effect of pemetrexed", "setting": "pemetrexed 50 mg/kg, days 1 and 4, tumor weight day 7", "value": "potentiated"}
    ]}
  ]
}
